Experimental data: ChEMBL document CHEMBL3804824, “5-((3-Amidobenzyl)oxy)nicotinamides as Sirtuin 2 Inhibitors” (J Med Chem, 2016)

Experiments:
[1] = target: T1, NAD-dependent protein deacetylase sirtuin-3, mitochondrial (Homo sapiens, UniProt Q9NTG7)
T1 sequence (Q9NTG7 whole entry): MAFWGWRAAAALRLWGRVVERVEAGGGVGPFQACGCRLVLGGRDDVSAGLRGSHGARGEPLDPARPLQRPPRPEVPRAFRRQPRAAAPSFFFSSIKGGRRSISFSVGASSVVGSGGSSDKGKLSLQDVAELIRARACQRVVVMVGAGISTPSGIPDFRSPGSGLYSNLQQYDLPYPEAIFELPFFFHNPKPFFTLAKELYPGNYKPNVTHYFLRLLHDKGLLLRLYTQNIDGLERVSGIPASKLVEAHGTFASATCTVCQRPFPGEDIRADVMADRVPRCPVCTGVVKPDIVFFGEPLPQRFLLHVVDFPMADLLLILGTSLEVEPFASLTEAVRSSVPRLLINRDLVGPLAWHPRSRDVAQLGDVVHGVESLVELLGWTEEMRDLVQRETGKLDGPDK

in vitro [2] = conditions: dog, MDCK
in vitro [3] = conditions: dog, MDCK; remark: listed apart in the source
in vitro [4] = conditions: dog, MDCK; remark: listed apart in the source
[5] = target: NAD-dependent protein deacylase sirtuin-5, mitochondrial (Homo sapiens, UniProt Q9NXA8)
Sequence of NAD-dependent protein deacylase sirtuin-5, mitochondrial (Q9NXA8 whole entry): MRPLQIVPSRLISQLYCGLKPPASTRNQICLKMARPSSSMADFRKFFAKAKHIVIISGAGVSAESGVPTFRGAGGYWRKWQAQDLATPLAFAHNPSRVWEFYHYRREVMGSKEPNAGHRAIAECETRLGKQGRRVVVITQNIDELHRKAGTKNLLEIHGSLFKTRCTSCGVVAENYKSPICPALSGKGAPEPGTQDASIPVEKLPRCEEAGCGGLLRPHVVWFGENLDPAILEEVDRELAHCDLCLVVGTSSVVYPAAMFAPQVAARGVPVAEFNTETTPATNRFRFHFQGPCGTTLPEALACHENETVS

in vitro [6] = conditions: mouse, plasma
Description: Metabolic stability in mouse plasma assessed as parent compound remaining incubated for 6 hrs by LC-MS/MS analysis

in vitro [7] = conditions: mouse, plasma; remark: listed apart in the source
Description: Metabolic stability in mouse plasma assessed as parent compound remaining incubated for 24 hrs by LC-MS/MS analysis

in vitro [8] = conditions: human, plasma
Description: Metabolic stability in human plasma assessed as parent compound remaining incubated for 6 hrs by LC-MS/MS analysis

in vitro [9] = conditions: human, plasma; remark: listed apart in the source
Description: Metabolic stability in human plasma assessed as parent compound remaining incubated for 24 hrs by LC-MS/MS analysis

in vitro [10] = conditions: mouse, microsomes
Description: Half life in mouse liver microsomes at 1 uM by LC-MS/MS analysis in presence of NADPH

in vitro [11] = conditions: human, microsomes
Description: Half life in human liver microsomes at 1 uM by LC-MS/MS analysis in presence of NADPH

IC50 [1]	Papp A→B at 3 h, 25 µM (in vitro [2])	Papp B→A at 3 h, 25 µM (in vitro [3])	recovery at 3 h, 25 µM (in vitro [4])	IC50 [5]	remaining at 6 h (in vitro [6])	remaining at 24 h (in vitro [7])	remaining at 6 h (in vitro [8])	remaining at 24 h (in vitro [9])	half-life at 1 µM (in vitro [10])	half-life at 1 µM (in vitro [11])	SMILES
> 200 µM											NC(=O)c1cncc(OCc2cccc(NC(=O)C34CC5CC(CC(C5)C3)C4)c2)c1
	3.8 ×10⁻⁶ cm/s	4.4 ×10⁻⁶ cm/s	> 90%								NC(=O)c1cncc(Oc2cccc3c(NC(=O)c4ccccc4)cccc23)c1
	23 ×10⁻⁶ cm/s	25 ×10⁻⁶ cm/s	> 90%	> 200 µM	78%	25%	99%	97%	0.85 h	5.5 h	NC(=O)c1cncc(OCc2cccc(NC(=O)c3cccnc3)c2)c1
